Assay results: patent US20200179310A1, “COMPOSITIONS COMPRISING SALBUTAMOL SULPHATE” (MEXICHEM AMANCO HOLDING S.A. DE C.V., priority 2013, published 2020)

Experiment: Solubility of surfactants in liquid propellant (non-volatile residue of saturated supernatant)
Assay type: physicochemical
Settings: for NVR result (quantity of dissolved surfactant in the propellant): equilibrated at 20° C., excess surfactant in 200 g liquid propellant
Description: The solubility of various surfactants in R-134a and R-152a was investigated. The solubility was investigated by adding an excess of the surfactant (around 2 grams) to 200 g of the liquid propellant in a pressurised vessel. The vessel was equilibrated at 20° C. for a period of a few hours before decanting a weighed sample of the saturated supernatant liquid propellant through a filter into a clean vessel. The propellant was slowly removed by evaporation and the residue taken up in a small quantity of dichloromethane. The dichloromethane containing the dissolved residue was transferred to a weighed platinum crucible and heated (up to around 100° C.) to remove the solvent. The weighed, solvent-free residue represented the quantity of dissolved surfactant in the propellant.

NVR result (quantity of dissolved surfactant in the propellant) (Refrigerant 134a (R-134a)): 0.07%
Observation (Refrigerant 152a (R-152a), 20° C.): Sunk to the bottom
NVR result (quantity of dissolved surfactant in the propellant) (Refrigerant 152a (R-152a)): 0.22%
Solubility in R-152a in comparison with R134a (comparison of Table 1 values): significant increases in solubility
Substance: Span 80
